Reference: patent publication US20090275667A1, “USE OF ALLICIN AS PRESERVATIVE, AS DISINFECTANT, AS ANTIMICROBIAL OR AS BIOCIDAL AGENT” (Stone Island Holdings Ltd, priority 2003, published 2009)

Assays:
Staph. Aureus = assay: Zones of Inhibition against common chicken bacteria; type: cell-based; conditions: Staphylococcus aureus
P. l. pulvifaciens = assay: Minimum bactericidal concentration by plating out MIC cultures; type: cell-based, Paenibacillus larvae subsp. pulvifaciens; conditions: range of 1000 ppm to 25 ppm
Protocol: Positive controls contained the antibiotic Tylosin (Tylan® 50, Elanco Animal Health Inc., IN) and negative controls contained no antibiotics. Bacterial (P. l. larvae, P. l. pulviphaciens) or fungal (A. apis, A. aggregata) spores (100 μl of approximately 10^8-10^9 spores/ml) were added to a 2.5 ml of bacterial or fungal liquid medium containing serial dilutions of allicin. Cultures were incubated in a shaker at 35° C. and 215 rpm. The optical densities of cultures (OD 600) were recorded 24 h and 48 h post inoculation, depending on the growth rate of the microbial species. […] Minimum bactericidal concentration values (NBC) were determined for allicin by plating out 100 μl of bacterial cultures derived from the MIC assay. Plates were incubated 24 h and 48 h at 33° C. and 6% CO2 to observe microbial growth.

[1] = system: Enterococcus hirae (University of Brighton isolate); assay: Modified Kelsey-Sykes test; type: cell-based; design: key: CG = Confluent growth
Excerpt: Allicin can be used to displace or supplement existing harmful forms of disinfectant/biocide such as chlorine, sodium hypochlorite, ozone and per-acetic acid all of which can have an adverse effect on the environment. UV radiation is also used for disinfection but power and general running costs are high. Laboratory studies have been conducted on our behalf using allicin on aqueous suspensions of bacterial species commonly used as indicators of the effectiveness of water and wastewater disinfection. To this effect, identified isolates from the faecal coliform and streptococcus groups, namely, Escherichia coli (NCTC 8156) and Enterococcus hirae (University of Brighton isolate) were used in all experiments. […]
Stock suspensions of Escherichia coli (NCTC 8156) and Enterococcus hirae (University of Brighton isolate) were cultivated in Nutrient Broth No. 2 from freeze dried isolates. Prior to each experiment, serial dilutions of the suspensions were enumerated by the spread plate method on Nutrient Agar and subsequent incubation at 37 deg C.
Initial experimental procedures were based on the methods set out in an established UK protocol (BS 6905: 1987). The Kelsy-Sykes methodology was developed as a guide to the concentrations of disinfectants which may be recommended for use under “dirty” (wastewater/sewage) conditions. It is therefore a suitable means of establishing the effectiveness of a disinfectant against a wastewater containing particulate and dissolved contaminants in addition to micro-organisms.
Therefore, with regard to wastewater/sewage considerations, the protocol was adapted. Under the revised methodology, a sample was taken from the bacterial suspension/biocide mix after the prescribed contact time and plated out onto solid media so that a colony count could be made (see Tables 1 and 2).

chickens = assay: In vivo trial of allicin in the drinking water of chickens, two sheds
Protocol: An in vivo trial has also been conducted in which two adjacent sheds each of 10,000 chickens were compared. Each shed was supplied with 1000 litres of water per day. For 7 days, the water for one shed had 1.5 litres of allicin solution (1000 ppm) added to the water supply, with 1 litre of allicin solution (1000 ppm) being added per day for a further 3 days. In the control shed, no allicin solution was added.
After just a few days, an improvement in the appearance of the health of the chickens in the allicin-treated shed was noted. For example, the combs of the chickens appeared redder and there was an increase of 2 percent in egg production. The vitality of the chickens improved. In contrast, in the control barn, E. coli infection was observed. Following completion of the trial, the livers of several of the birds were examined.

[2] = system: methicillin resistant Staphylococcus aureus (MRSA); conditions: certain species of MRSA; earlier application WO03/024437; cited from earlier work
[3] = system: E. coli and Salmonella growth; assay: Preservation of hamburger meat samples against bacterial growth; type: cell-based; conditions: for time bacterial overgrowth prevented: 10 kg hamburger meat
Excerpt: A range of concentrations of liquid allicin (0 ppm to 500 ppm) was applied to 10 kg samples of hamburger meat to determine how long bacterial growth could be prevented. These tests were compared to the normal use of existing preservatives (including nitrates and phosphates).
To test for bacterial growth, small samples of meat were cut from the test piece of meat and, using standard methods of analysis, were checked for E. coli and Salmonella growth.

M. plutonius = assay: Investigation into bacteriostatic or bactericidal effects (Study 2); type: cell-based, Melissococcus plutonius; conditions: conclusion from subculture after exposure
Protocol: Where there was no growth in a replicate, at the end of one week the culture was plated out for single colonies on the appropriate agar. This was to determine whether the test item had bactericidal activity, where all the bacterial cells are killed, or bacteriostatic action, where the cells are unable to replicate in the presence of the substance, but will grow when it is removed. A further test, where 0.5 ml of the broth was transferred into 4.5 ml fresh broth (giving a 1:10 dilution) was also undertaken. There would still be some Allicin in the broth, but it should be present at a low enough concentration for growth not to be affected. Where growth occurred in the absence of Allicin, the broth was examined microscopically and plated out for single colonies to confirm the identity of the bacterium.

E. coli = assay: Zones of Inhibition against common chicken bacteria; type: cell-based; conditions: Escherichia coli
[4] = system: protozoal parasite associated with Leishmaniasis; assay: Confirmatory in vitro test against the Leishmaniasis parasite; type: cell-based, Leishmania; conditions: allicin 5.0 gm per litre
Excerpt: Confirmatory in vitro tests at the University of East London using allicin at a concentration of 5.0 gm per litre has killed the protozoal parasite associated with Leishmaniasis. Taken with extrapolation of the results from the laboratory studies described in PCT/GB2002/004309, we believe that allicin at a concentration of 5000 ppm has efficacy as an antiprotozoal agent.

[5] = allicin conc. 0.9 % (w/v), 10 mins
[6] = allicin conc. 0.9 % (w/v), 20 mins
[7] = allicin conc. 0.9 % (w/v), 30 mins
[8] = allicin conc. 1.08 % (w/v), 10 mins
[9] = allicin conc. 1.08 % (w/v), 20 mins
[10] = allicin conc. 1.26 % (w/v), 10 mins
[11] = allicin conc. 1.26 % (w/v), 20 mins
[12] = allicin conc. 1.62 % (w/v), 10 mins
[13] = allicin conc. 1.62 % (w/v), 20 mins

## C=CCS[S+]([O-])CC=C (centres unmarked) [allicin, Allicin]
Staph. Aureus; 166 ppm (1:6 dilution)
  zone of inhibition at 166 ppm: 0 mm
Staph. Aureus; 1000 ppm
  zone of inhibition at 1000 ppm: 32 mm
P. l. pulvifaciens
  bacteriostatic or bactericidal activity: only bacteriostatic (no bactericidal) activity
[1]; [5]
  Numbers of colony forming units killed: CG
  Percentage reduction in colony forming units: CG
[1]; [6]
  Numbers of colony forming units killed: CG
  Percentage reduction in colony forming units: CG
[1]; [7]
  Numbers of colony forming units killed: CG
  Percentage reduction in colony forming units: CG
[1]; [8]
  Numbers of colony forming units killed: CG
  Percentage reduction in colony forming units: CG
[1]; [9]
  Numbers of colony forming units killed: CG
  Percentage reduction in colony forming units: CG
[1]; allicin conc. 1.08 % (w/v), 30 mins
  Percentage reduction in colony forming units: 77%
[1]; [10]
  Numbers of colony forming units killed: CG
  Percentage reduction in colony forming units: CG
[1]; [11]
  Numbers of colony forming units killed: CG
  Percentage reduction in colony forming units: CG
[1]; allicin conc. 1.26 % (w/v), 30 mins
  Percentage reduction in colony forming units: 91%
[1]; allicin conc. 1.4 % (w/v), 10 mins
  Percentage reduction in colony forming units: CG
[1]; allicin conc. 1.4 % (w/v), 20 mins
  Percentage reduction in colony forming units: CG
[1]; allicin conc. 1.4 % (w/v), 30 mins
  Percentage reduction in colony forming units: 87%
[1]; allicin conc. 1.44 % (w/v), 10 mins
  Numbers of colony forming units killed: CG
[1]; allicin conc. 1.44 % (w/v), 20 mins
  Numbers of colony forming units killed: CG
[1]; [12]
  Numbers of colony forming units killed: CG
  Percentage reduction in colony forming units: CG
[1]; [13]
  Numbers of colony forming units killed: CG
  Percentage reduction in colony forming units: CG
[1]; allicin conc. 1.62 % (w/v), 30 mins
  Percentage reduction in colony forming units: 89%
chickens; allicin solution (1000 ppm) 1.5 litres/day in 1000 litres water for 7 days, then 1 litre/day for 3 days, vs control shed
  increase in egg production: 2%
chickens; allicin-treated shed vs control shed
  resistance to chicken bloodlice: improved resistance
chickens; livers examined after completion of the trial, vs control chickens
  evidence of E. coli infection in livers: did not
[2]
  susceptibility of MRSA to allicin: exceptionally susceptible
[3]; 250 ppm
  time bacterial overgrowth prevented: up to 7 days
[3]; 375 ppm
  time bacterial overgrowth prevented: up to 10 days
[3]; 500 ppm
  time bacterial overgrowth prevented: up to 14 days
[3]; meat, equivalent to 0.0250% w/v
  allicin concentration demonstrating prevention of growth of E. coli and Salmonella: 250 ppm
M. plutonius
  bacteriostatic or bactericidal effect: bacteriostatic rather than bactericidal effects
E. coli; 166 ppm (1:6 dilution)
  zone of inhibition at 166 ppm: 0 mm
E. coli; 1000 ppm
  zone of inhibition at 1000 ppm: 17 mm
[4]
  killing of the protozoal parasite: killed
